Reference: US20250002476A1, “AZOLE COMPOUNDS FOR CONTROLLING INVERTEBRATE PESTS” (FMC Corporation, priority 2021, published 2025)

Columns and labels:
Type in all cases: in vivo
[1] = tested on: Corn Planthopper (Peregrinus maidis (Ashmead)); assay: Test B: control of Corn Planthopper on sprayed corn plant; settings: 144 h, nymphs, 6 days; for mortality at 50 ppm: sprayed at 50 ppm; for mortality at 10 ppm: sprayed at 10 ppm; for mortality at 250 ppm: sprayed at 250 ppm
Experimental: (§1) Test compounds were formulated using a solution containing 10% acetone, 90% water and 300 ppm Activator 90@ non-ionic surfactant (Loveland Products, Loveland, Colorado, USA). The formulated compounds were applied in 1 mL of liquid through an atomized nozzle positioned 1.27 cm (0.5 inches) above the top of each test unit. Test compounds were sprayed at the rates indicated, and each test was replicated three times.
For evaluating control of Corn Planthopper (Peregrinus maidis (Ashmead)) through contact and/or systemic means, the test unit consisted of a small open container with a 3-4-day-old corn (maize) plant inside. White sand was added to the top of the soil prior to application of the test compound.
Test compounds were formulated and sprayed at 250, 50 and 10 ppm. After spraying of the formulated test compound, the test units were allowed to dry for 1 h before they were post-infested with ˜15-20 nymphs (18-to-21-day-old). A black, screened cap was placed on the top of each test unit, and the test units were held for 6 days in a growth chamber at 22-24° C. and 50-70% relative humidity. Each test unit was then visually assessed for insect mortality.

[2] = tested on: cotton melon aphid (Aphis gossypii (Glover)); assay: Test E: control of cotton melon aphid on sprayed okra plant; settings: 144 h, pre-infested, 6 days; for mortality at 50 ppm: sprayed at 50 ppm; for mortality at 10 ppm: sprayed at 10 ppm; for mortality at 250 ppm: sprayed at 250 ppm
Experimental: as §1
For evaluating control of cotton melon aphid (Aphis gossypii (Glover)) through contact and/or systemic means, the test unit consisted of a small open container with a 5-day-old okra plant inside. This was pre-infested with 30-40 insects on a piece of leaf according to the cut-leaf method, and the soil of the test unit was covered with a layer of sand.
Test compounds were formulated and sprayed at 250, 50, 10 and 2 ppm. After spraying, the test units were maintained in a growth chamber for 6 days at 19° C. and 70% relative humidity. Each test unit was then visually assessed for insect mortality.

[3] = tested on: Green Peach Aphid (Myzus persicae (Sulzer)); assay: Test D: control of Green Peach Aphid on sprayed radish plant; settings: 144 h, pre-infested, 6 days; for mortality at 250 ppm: sprayed at 250 ppm; for mortality at 50 ppm: sprayed at 50 ppm
Experimental: as §1
For evaluating control of Green Peach Aphid (Myzus persicae (Sulzer)) through contact and/or systemic means, the test unit consisted of a small open container with a 12-15-day-old radish plant inside. Prior to compound application, each test unit was pre-infested by placing on a leaf of the test plant 30-40 aphids on a piece of leaf excised from a culture plant (cut-leaf method). The aphids moved onto the test plant as the leaf piece desiccated. After pre-infestation, the soil of the test unit was covered with a layer of sand.
Test compounds were formulated and sprayed at 250 and 50 ppm. After spraying of the formulated test compound, each test unit was allowed to dry for 1 hour and then a black, screened cap was placed on top. The test units were held for 6 days in a growth chamber at 19-21° C. and 50-70% relative humidity. Each test unit was then visually assessed for insect mortality.

[4] = tested on: silverleaf whitefly (Bemisia argentifolii (Bellows and Perring)); assay: Test F: control of silverleaf whitefly on sprayed soybean plant; settings: 288 h, pre-infested (oviposition), 12 days; for mortality at 50 ppm: sprayed at 50 ppm; for mortality at 250 ppm: sprayed at 250 ppm
Experimental: as §1
For evaluating control of silverleaf whitefly (Bemisia argentifolii (Bellows and Perring)) through contact and/or systemic means, each test unit consisted of a small open container with a 5-7 day old soybean plant inside. This was pre-infested by placing test units into cages containing adult whiteflies so that oviposition on the leaves could occur. The adults were removed from the plants with an air-blast nozzle, and the test units were capped. The test units were then stored 2 to 3 days before spraying.
Test compounds were formulated and sprayed at 250 and 50 ppm. After spraying, the test units were maintained in a growth chamber for 12 days at 23° C. and 70% relative humidity. Each test unit was then visually assessed for insect mortality.

CCC#CCn1cc(-c2cccc(C(F)(F)F)c2)nn1 [Compound 3, 1-(2-Pentyn-1-yl)-4-[3-(trifluoromethyl)phenyl]-1H-1,2,3-triazole]
mortality at 50 ppm [1]: ≥ 80%

CCC#CCn1nnc(-c2ccc(Cl)cc2)n1 [Compound 60, 5-(4-chlorophenyl)-2-(pent-2-yn-1-yl)-1,2,3,4-tetrazole]
mortality at 50 ppm [2]: ≥ 80% | mortality at 250 ppm [3]: ≥ 80%

CCC#CCn1nnc(-c2ccc(C(F)(F)F)cc2)n1 [Compound 64, 2-(2-Pentyn-1-yl)-5-[4-(trifluoromethyl)phenyl]-2H-tetrazole]
mortality at 10 ppm [1]: ≥ 80% | mortality at 10 ppm [2]: ≥ 80% | mortality at 50 ppm [3]: ≥ 80%

CCC#CCn1cc(-c2ccccc2)cn1 [Compound 114]
mortality at 250 ppm [1]: ≥ 80% | mortality at 250 ppm [2]: ≥ 80%

CCC#CCn1nnc(-c2ccc(C(F)(F)F)cn2)n1 [Compound 122]
mortality at 250 ppm [1]: ≥ 80%

CCC#CCn1cc(-c2ccc(C(F)(F)F)cn2)nn1 [Compound 123, 2-[1-(2-Pentyn-1-yl)-1H-1,2,3-triazol-4-yl]-5-(trifluoromethyl)pyridine]
mortality at 50 ppm [1]: ≥ 80% | mortality at 50 ppm [2]: ≥ 80%

CCC#CCn1ncc(-c2ccc(C(F)(F)F)cn2)n1 [Compound 124, 2-[2-(2-Pentyn-1-yl)-2H-1,2,3-triazol-4-yl]-5-(trifluoromethyl)pyridine]
mortality at 50 ppm [1]: ≥ 80% | mortality at 50 ppm [2]: ≥ 80% | mortality at 50 ppm [3]: ≥ 80%

CCC#CCn1cc(-c2ccc(C(F)(F)F)nc2)nn1 [Compound 125]
mortality at 250 ppm [1]: ≥ 80%

CCC#CCn1ncc(-c2ccc(C(F)(F)F)nc2)n1 [Compound 126, 5-[2-(2-Pentyn-1-yl)-2H-1,2,3-triazol-4-yl]-2-(trifluoromethyl)pyridine]
mortality at 10 ppm [1]: ≥ 80% | mortality at 10 ppm [2]: ≥ 80% | mortality at 50 ppm [3]: ≥ 80%

CCC#CCn1nnc(-c2ccsc2)n1 [Compound 129]
mortality at 250 ppm [2]: ≥ 80%

CCC#CCn1nnc(-c2cccs2)n1 [Compound 130]
mortality at 250 ppm [2]: ≥ 80%

CCC#CCn1ncc(-c2ccc(Cl)cn2)n1 [Compound 141]
mortality at 50 ppm [4]: ≥ 50% | mortality at 250 ppm [2]: ≥ 80% | mortality at 250 ppm [3]: ≥ 80%

CCC#CCn1cc(-c2ccc(F)cn2)nn1 [Compound 149]
mortality at 50 ppm [1]: ≥ 80% | mortality at 250 ppm [2]: ≥ 80%

CCC#CCn1ncc(-c2ccc(F)cn2)n1 [Compound 150]
mortality at 50 ppm [1]: ≥ 80% | mortality at 50 ppm [2]: ≥ 80% | mortality at 250 ppm [3]: ≥ 80%

CCC#CCn1cc(-c2cncc(F)c2)nn1 [Compound 154]
mortality at 250 ppm [1]: ≥ 80% | mortality at 250 ppm [2]: ≥ 80%

CCC#CCn1cc(-c2ccc(Cl)nc2)nn1 [Compound 156]
mortality at 250 ppm [2]: ≥ 80%

CCC#CCn1nnc(-c2ccc3ccccc3c2)n1 [Compound 168]
mortality at 50 ppm [1]: ≥ 80% | mortality at 50 ppm [2]: ≥ 80%

CCC#CCn1nnc(-c2cnc3ccccc3c2)n1 [Compound 169]
mortality at 250 ppm [1]: ≥ 80% | mortality at 50 ppm [2]: ≥ 80%

CCC#CCn1ncc(-c2cc(F)cc(C#N)c2)n1 [Compound 175, 3-Fluoro-5-[2-(2-pentyn-1-yl)-2H-1,2,3-triazol-4-yl]benzonitrile]
mortality at 50 ppm [1]: ≥ 80% | mortality at 50 ppm [2]: ≥ 80%

CCC#CCn1nnc(-c2cc(C(F)(F)F)ccn2)n1 [Compound 177]
mortality at 50 ppm [2]: ≥ 80%

CCC#CCn1nnc(-c2ccnc(C(F)(F)F)c2)n1 [Compound 188]
mortality at 10 ppm [1]: ≥ 80% | mortality at 50 ppm [2]: ≥ 80% | mortality at 250 ppm [2]: ≥ 80% | mortality at 250 ppm [3]: ≥ 80%

CCC#CCn1nnc(-c2cc3ccccc3o2)n1 [Compound 194]
mortality at 250 ppm [1]: ≥ 80% | mortality at 50 ppm [2]: ≥ 80%

CCC#CCn1ncc(-c2ccnc(C(F)(F)F)c2)n1 [Compound 197]
mortality at 50 ppm [1]: ≥ 80% | mortality at 50 ppm [2]: ≥ 80%

CCC#CCn1cc(-c2ccnc(C(F)(F)F)c2)nn1 [Compound 198]
mortality at 250 ppm [1]: ≥ 80% | mortality at 250 ppm [2]: ≥ 80%

CCC#CCn1ncc(-c2cc(C(F)(F)F)ccn2)n1 [Compound 203]
mortality at 250 ppm [1]: ≥ 80% | mortality at 50 ppm [2]: ≥ 80% | mortality at 250 ppm [3]: ≥ 80%

CCC#CCn1ncc(-c2cncc(C(F)(F)F)c2)n1 [Compound 204, 3-[2-(2-Pentyn-1-yl)-2H-1,2,3-triazol-4-yl]-5-(trifluoromethyl)pyridine]
mortality at 50 ppm [1]: ≥ 80% | mortality at 10 ppm [2]: ≥ 80% | mortality at 50 ppm [3]: ≥ 80%

CCC#CCn1cc(-c2cncc(C(F)(F)F)c2)nn1 [Compound 205]
mortality at 250 ppm [1]: ≥ 80% | mortality at 250 ppm [2]: ≥ 80%

CCC#CCn1cc(-c2ccc(OC(F)(F)F)nc2)nn1 [Compound 206]
mortality at 250 ppm [1]: ≥ 80%

CCC#CCn1ncc(-c2ccc(OC(F)(F)F)nc2)n1 [Compound 207, 5-[2-(2-Pentyn-1-yl)-2H-1,2,3-triazol-4-yl]-2-(trifluoromethoxy)pyridine]
mortality at 50 ppm [1]: ≥ 80% | mortality at 50 ppm [2]: ≥ 80% | mortality at 50 ppm [3]: ≥ 80%

CCC#CCn1cc(-c2cc(C(F)(F)F)ccn2)nn1 [Compound 208]
mortality at 50 ppm [1]: ≥ 80% | mortality at 250 ppm [2]: ≥ 80%

CCC#CCn1cc(-c2cccc(C(F)(F)F)n2)nn1 [Compound 212]
mortality at 250 ppm [1]: ≥ 80%

CCC#CCn1ncc(-c2cccc(C(F)(F)F)n2)n1 [Compound 213]
mortality at 250 ppm [1]: ≥ 80% | mortality at 50 ppm [2]: ≥ 80% | mortality at 250 ppm [3]: ≥ 80%

CCC#CCn1ncc(-c2ccnc(C#N)c2)n1 [Compound 219]
mortality at 50 ppm [2]: ≥ 80%

CCC#CCn1nnc(-c2ccnc(C#N)c2)n1 [Compound 222]
mortality at 50 ppm [2]: ≥ 80%

CCC#CCn1nnc(-c2cc(OC)ccn2)n1 [Compound 223]
mortality at 250 ppm [2]: ≥ 80%

CCC#CCn1ncc(-c2cncc(C#N)c2)n1 [Compound 232]
mortality at 50 ppm [2]: ≥ 80%

CCC#CCn1cc(-c2cncc(C#N)c2)nn1 [Compound 233]
mortality at 250 ppm [2]: ≥ 80%

CCC#CCn1ncc(-c2cc(OC)ccn2)n1 [Compound 234]
mortality at 250 ppm [2]: ≥ 80%

CCC#CCn1nnc(-c2ccnc(OC)c2)n1 [Compound 236, 2-Methoxy-4-[2-(2-pentyn-1-yl)-2H-tetrazol-5-yl]pyridine]
mortality at 50 ppm [1]: ≥ 80% | mortality at 50 ppm [2]: ≥ 80% | mortality at 250 ppm [3]: ≥ 80%

CCC#CCn1ncc(-c2cccc(OC)n2)n1 [Compound 237]
mortality at 50 ppm [1]: ≥ 80% | mortality at 250 ppm [2]: ≥ 80%

CCC#CCn1cc(-c2cccc(C#N)n2)nn1 [Compound 249]
mortality at 250 ppm [2]: ≥ 80%

CCC#CCn1ncc(-c2cccc(C#N)n2)n1 [Compound 250]
mortality at 50 ppm [1]: ≥ 80% | mortality at 50 ppm [2]: ≥ 80%

CCC#CCn1nnc(-c2cccc(OC)n2)n1 [Compound 251]
mortality at 250 ppm [1]: ≥ 80% | mortality at 250 ppm [2]: ≥ 80%

CCC#CCn1ncc(-c2cncc(OC)c2)n1 [Compound 252]
mortality at 250 ppm [2]: ≥ 80%

CCC#CCn1cc(-c2cncc(OC)c2)nn1 [Compound 255]
mortality at 250 ppm [1]: ≥ 80%

CCC#CCn1nnc(-c2cc(OC)cc(C(F)(F)F)c2)n1 [Compound 286, 5-[3-Methoxy-5-(trifluoromethyl)phenyl]-2-(2-pentyn-1-yl)-2H-tetrazole]
mortality at 50 ppm [4]: ≥ 50% | mortality at 250 ppm [1]: ≥ 80% | mortality at 50 ppm [2]: ≥ 80%

COCC#CCn1ncc(-c2ccc(C(F)(F)F)cc2)n1 [Compound 299]
mortality at 250 ppm [4]: ≥ 50%

COCC#CCn1nnc(-c2ccc(C(F)(F)F)cc2)n1 [Compound 300]
mortality at 250 ppm [4]: ≥ 50% | mortality at 250 ppm [2]: ≥ 80%

CCC#CCn1nnc(-c2cc(C#N)ccn2)n1 [Compound 303]
mortality at 250 ppm [2]: ≥ 80%

CCC#CCn1nnc(-c2ccc(OC(F)F)cc2)n1 [Compound 311, 5-[4-(Difluoromethoxy)phenyl]-2-(2-pentyn-1-yl)-2H-tetrazole]
mortality at 50 ppm [4]: ≥ 50% | mortality at 50 ppm [1]: ≥ 80% | mortality at 50 ppm [2]: ≥ 80%
